This is an account of results in patent US20180244548A1, “USE OF COPPER-CARBON COMPOSITE NANOMATERIAL IN ALGAE CONTROL” (Suzhou Guanjie Nano Anti-bacteria Coating Technology Co., …, priority 2015, published 2018).

“And” between values parts separate entries of the source, which are not always exact repeats. Equal entries are not always repeated.

For assay [1], the system named is scenedesmus (green algae), chlorella (green algae) and microcystis aeruginosa (blue algae). In words: laboratory algae growth inhibition, α content of chlorophyll over time. The format is cell-based. Conditions: copper sulfate 6 ppm.
For assay [2], the system named is scenedesmus, chlorella and microcystis aeruginosa cells. In words: scanning electron microscope appearance observation of algae cells. Conditions: nanomaterial 6.25-50 ppm; activated carbon 50 ppm; copper oxide 50 ppm; copper sulfate 6 ppm. The class given is cell-based.

For the compound `O=S(=O)([O-])[O-].[Cu+2]` [copper sulfate], the “inhibition time of algae growth” value in assay [1] was 7 to 9 days and 7 days. In addition, the “appearance of algae cells in scanning electron micrographs” value in assay [2] is on record as “completely changed”.
